Usually EC50 stands for the concentration at which the effect is half-maximal.

Tested on in the first test: not listed separately
Description: RNA FP protection counter screen assay. The settings on record: counter screen for false positives, n=2. The procedure:
(§1) In the FP assay, fluorophores were added to the 3′ and 5′ end of a short RNA construct and incubated with a boron compound under accelerated degradation conditions (e.g., base and temperature). For intact RNA, the 2 fluorophores come together to produce fluorescence. When the RNA is cleaved, there is no fluorescence. […] The counter screen assay run for each boron compound was used as control.
(In general: A counterscreen serves to expose hits that act by an unwanted route or on another target.)
Regarding `NCc1cc(C(F)(F)F)ccc1Oc1ccc2c(c1)COB2O` [PF-06967658, 5-(2-(aminomethyl)-4-(trifluoromethyl)phenoxy)be nzo[c][1,2]oxaborol-1 (3H)-ol], the “activity in the RNA FP protection counter screen” value is recorded as “lack of activity”.
Same read-out and setting: the same measure for `CC1(C)OB(O)c2cc(C(=O)O)ccc21` [PF-06966741, 1-hydroxy-3,3-dimethyl-1,3-dihydrobenzo[c][1,2]oxabor ole-6-carboxylic acid]: “lack of activity”; for `CC1(C)OB(C2(B3OC(C)(C)C(C)(C)O3)CCCCC2)OC1(C)C` [PF-07230998, 2,2′-(cyclohexane-1,1-diyl)bis(4,4,5,5-tetramethyl-1,3,2-dioxaborolane)]: “lack of activity”.

Another test deals with random 30nt RNA oligonucleotide with a 5′ Cy5 fluorophore and a 3′ Biotin (SEQ ID NO: 9). Kind of test: RNA Fluorescence Polarization (FP) protection assay. The settings on record: 62.5 mM NaOH, 18 hours, dose response 600 µM top dose, n=2. It counts as biochemical. The procedure:
as §1
The RNA FP protection assay used a random 30nt RNA oligonucleotide (oligo) with a 5′ Cy5 fluorophore and a 3′ Biotin of the following sequence: 5′-Cy5-
In the presence of excess streptavidin, the RNA oligo will bind to the streptavidin and rotational spin will decrease causing an increase in the mP value in a fluorescence polarization (FP) measurement. When the RNA backbone is hydrolyzed under base mediated hydrolysis with increasing pH the Cy5 fluorophore will be free to spin faster lowering the mP value in an FP measurement. Compounds that inhibit base mediated hydrolysis will prevent release of Cy5 and reduction in mP value. […]
With regard to the plots provided in FIGS. 2-7, the detection for this assay used the fluorescent polarization of the fluorescent dye used in the assay. When a fluorescent dye has a high mass the spin rate is low and when the fluorescence is measured using two polarizing filters one parallel and one perpendicular the amount of spin can be measured. The unit Polarization was measured as mili-Polarization (mP). A dye with high mass will have a high mP reading and low mass will have a low mP reading. Streptavidin was added to bind to the biotin-RNA-Cy5 oligo to achieve high mass and the high mP reading. […] When a boron compound dose provides 100% activity, the RNA is intact/protected and the mP value measured is high. […]
To all wells in a compound spotted assay ready plate (Coming #3820) were added 2.5 µL of a 2x Biotin-RNA-Cy5 (Genescript custom #SC1518) and Streptavidin (ThermoFisher#21135) made in nuclease free water, incubated for 20 minutes, 2.5 µL of 50 mM Tris pH 7.2 was added to the positive control wells, and 2.5 µL 125 mM NaOH was added to all other wells. […]
On the technique in general: Fluorescence polarisation rises when a labelled molecule tumbles more slowly, as on binding a larger partner.
On to `NCc1cc(C(F)(F)F)ccc1Oc1ccc2c(c1)COB2O` [PF-06967658, 5-(2-(aminomethyl)-4-(trifluoromethyl)phenoxy)be nzo[c][1,2]oxaborol-1 (3H)-ol], for which the “ability of the boron compound to protect RNA from being cleaved/degraded (percent activity, FP)” value is given as “RNA protective effect”.
Same read-out and setting: next, `CC1(C)OB(O)c2cc(C(=O)O)ccc21` [PF-06966741, 1-hydroxy-3,3-dimethyl-1,3-dihydrobenzo[c][1,2]oxabor ole-6-carboxylic acid]: “RNA protective effect”.
The same measure, in the same setting: the same measure for `CC1(C)OB(C2(B3OC(C)(C)C(C)(C)O3)CCCCC2)OC1(C)C` [PF-07230998, 2,2′-(cyclohexane-1,1-diyl)bis(4,4,5,5-tetramethyl-1,3,2-dioxaborolane)]: “RNA protective effect”.

Another test addresses RNA samples (Chi18 or HCV IRES). Kind of test: Droplet Digital Polymerase Chain Reaction (ddPCR) assay of RNA protection. The format is biochemical. The settings on record: 50 mM Tris buffer pH 11.4, 16 hrs at 30° C. for Chi18 or 42° C. for HCV; table does not say which RNA; 600 µM to 0.018 µM compound, 2% DMSO; read-out: EC50 Values Obtained from the ddPCR Assay. The procedure: The ddPCR assays measured RNA integrity by converting intact RNA to cDNA by reverse transcription, then performing digital PCR in thousands of nanoliter-sized droplets for each sample. PCR was performed within each droplet, which allowed for more sensitive detection of subtle changes in RNA concentration compared to traditional PCR or qPCR. Additionally, primers/probes specific to the 5′ end of the RNA/cDNA transcript(s) were used to assess fragment integrity, i.e. degraded RNA had fewer 5′ positive droplets. The BioRad QX200 Droplet Digital PCR System was used for the ddPCR workflow.
RNA samples (Chi18 or HCV IRES) were diluted to 100 fg/µL in 50 mM Tris buffer pH 11.4. Boron compounds were tested in a dose-response format to determine EC50. A compound dilution plate that contained a 30 mM top concentration of compound in DMSO was serially (half-log) diluted 10 times. A quantity of 0.12 µL of this compound dilution plate was spotted into a 96-well PCR plate (Thermo). Sample RNAs were added (6 µL) and incubated with test compounds as described below. Final compound concentrations ranged from 600 µM to 0.018 µM in 2% DMSO.
For the degradation reaction, treated RNAs were incubated for 16 hrs at 30° C. for Chi18 samples or 42° C. for HCV samples. Upon completion of the degradation reaction, cDNA was made and ddPCR run for each sample (96 well plates). Positive 5′ droplet values were divided by the total accepted droplet values for each sample and a ratio value generated for each sample.
Data was imported into a database where percent (%) protection and compound EC50 were calculated and curated. […] EC50 was determined by using a four parameter logistic equation: Y=A+((B-A)/(1+(C/X)D)); where Y is percent protection, X is compound concentration, A and B are minimum and maximum asymptotes, respectively, C is EC50, and D is Hill slope.
As for `CN(C)/C(O)=C/C1=[O+][B-](F)(F)Oc2cc(O)ccc21` [PF-03806704, {(2Z)-3-(dimethylamino)-3-hydroxy-1-[4-hydroxy-2-(hydroxy-kappaO)phenyl]prop-2-en-1-onato-kappaO}(difluorido)boron], the 50% effective concentration (EC50) came to 323 µM.
On the same count and under the same terms, the same measure for `CN(C)c1cc(NC(=O)c2ccc3c(c2)B(O)OC3(C)C)c(O)c2c1C[C@H]1C[C@H]3[C@H](N(C)C)C(O)=C(C(N)=O)C(=O)[C@@]3(O)C(O)=C1C2=O` [PF-06967791, N-[(5aR,6aS,7S,1 OaS)-9-carbamoyl-4,7-bis(dimethylamino)-1,8,10a,11-tetrahydroxy-10,12-dioxo-5,5a,6,6a,7,10,10a,12-octahydrotetracen-2-yl]-1-hydroxy-3,3-dimethyl-1,3-dihydro-2,1-benzoxaborole-6-carboxamide]: 55.6 µM.
As to `C[C@H]1c2c(NC(=O)c3ccc4c(c3)B(O)OC4(C)C)ccc(O)c2C(=O)C2=C(O)[C@]3(O)C(=O)C(C(N)=O)=C(O)[C@@H](N(C)C)[C@@H]3[C@@H](O)[C@@H]21` [PF-06968370, N-[(6aS,10S,10aR,11S,11aR, 12R)-8-carbamoyl-10-(dimethylamino)-4,6,6a,9,11-pentahydroxy-12-methyl-5,7-dioxo-5,6a,7,10,10a,11,11a,12-octahydrotetracen-1-yl]-1-hydroxy-3,3-dimethyl-1,3-dihydro-2,1-benzox aborole-6-carboxamide], the EC50 is 258 µM.
On the same count and under the same terms, next, `CN1CCN(Cc2cccc(B(Oc3cccc4cccnc34)c3ccc(C#N)cc3)c2)CC1` [PF-06957315, quinolin-8-yl (4-cyanophenyl){3-[(4-methylpiperazin-1-yl)methyl]phenyl}borinate]: 253 µM; `O=C(Nc1ccc2c(c1)B(O)OC2)c1ccccc1` [PF-06957640, N-(1-hydroxy-1,3-dihydro-2,1-benzoxaborol-6-yl)benzamide]: 266 µM.
For `Cc1cc(Oc2ccnc(NCCN)n2)cc2c1C(CC(=O)O)OB2O` (stereo not drawn) [PF-06959336, 2-(6-((2-((2-aminoethyl)amino)pyrimidin-4-yl)oxy)-1-hydroxy-4-methyl-1,3-dihydrobenzo[c][1,2]oxabor ol-3-yl)acetic acid], the EC50 stood at 114 µM.
On the same count and under the same terms, next, `COC(=O)c1cc(B2OC(C)(C)C(C)(C)O2)cc(C(=O)OC)n1` [PHA-00804319, dimethyl 4-(4,4,5,5-tetramethyl-1,3,2-dioxaborolan-2-yl)pyridine-2,6-dicarboxylate]: 214 µM.
The same measure, in the same setting: the same measure for `CC1(C)COC(c2cccc(B(Oc3cccc4cccnc34)c3cccc(F)c3)c2)=N1` [PF-06956596, quinolin-8-yl [3-(4,4-dimethyl-4,5-dihydro-1,3-oxazol-2-yl)phenyl](3-fluorophenyl)borinate]: 300 µM; for `Cc1cc(CNc2nc(N3CCC[C@@H](c4ccccc4C)C3)nc3[nH]ccc23)on1` [PF-00838447, N-[(3-methyl-1,2-oxazol-5-yl)methyl]-2-[(3S)-3-(2-methylphenyl)piperidin-1-yl]-7H-pyrrolo[2,3-d]pyrimidin-4-amine]: 388 µM; for `CN(C)/C(O)=C/C1=[O+][B-](F)(F)OC=C1c1ccccc1` [PF-03696713, [(1Z)-1-(dimethylamino)-1-hydroxy-5-(hydroxy-kappaO)-4-phenylpenta-1,4-dien-3-onato-kappaO](difluorido)boron]: 400 µM.
Same read-out and setting: the same measure for `CN(C)Cc1ccc(B(Oc2cccc3cccnc23)c2cccc(C#N)c2)cc1Cl` [PF-06956816, quinolin-8-yl {3-chloro-4-[(dimethylamino)methyl]phenyl}(3-cyanophenyl)borinate]: 137 µM.
Consider `C[C@H]1c2ccc(NCCC(=O)Nc3ccc4c(c3)OCCOB4O)c(O)c2C(=O)C2=C(O)[C@]3(O)C(=O)C(C(N)=O)=C(O)[C@@H](N(C)C)[C@@H]3[C@@H](O)[C@@H]21` [PF-06968559, (4S,4aR,5S,5aR,6R,12aS)-4-(dimethylamino)-3,5,10,12,12a-pentahydroxy-9-({3-[(1-hydroxy-3,4-dihydro-1H-2,5,1-benzodioxaborepin-7-yl)amino]-3-oxopropyl}amino)-8-methyl-1,11-dioxo-1,4,4a,5,5a,6,11,12a-oc tahydrotetracene-2-carboxamide], for which the EC50 came to 99.1 µM.
Regarding `C=C(CN(C)Cc1ccccc1)[B-](F)(F)F` [PF-06840997, {3-[benzyl(methyl)amino]prop-1-en-2-yl}(trifluorido)borate(1-)], the EC50 stood at 306 µM.
The same measure, in the same setting: next, `Cc1cccnc1N(C(=O)c1ccc([B-](F)(F)F)cc1)[C@@H]1CCCN(C(=O)OC(C)(C)C)C1` [PF-06875313, (4-{[(3R)-1-(tert-butoxycarbonyl)piperidin-3-yl](3-methylpyridin-2-yl)carbamoyl}phenyl)(trifluor ido)borate(1-)]: 360 µM; `Clc1cc2c(cc1Cl)OB(c1ccc(Br)cc1)O2` [PF-04009301, 2-(4-bromophenyl)-5,6-dichloro-2H-1,3,2-benzodioxaborole]: 474 µM.
